Experimental data taken from US8648047B2, “Methods and compositions for inhibition of multi-drug resistance by hyaluronan oligomers” (Tufts University, priority 2002, dated 2014).
pIC50: −log10 of the molar value. Like-named read-outs stand apart in the source and are kept apart here.

Assays:
[1] = tested on: MCF-7/Adr drug-resistant human mammary carcinoma cells; experiment: Drug resistance, viable cell number (Coulter Counter); assay type: cell-based
Experimental: (§1) FIG. 15A is a line graph showing that MCF-7/Adr drug-resistant human mammary carcinoma cells grown in culture with hyaluronan oligomers are sensitized to doxorubicin. MCF-7/Adr cells were obtained from MCF-7 cells by being selected for drug resistance by exposure to doxorubicin. Cells were grown for 24 h in 24-well plates in RPMI 1640 medium containing Glutamex 1 plus 10% fetal bovine serum at 37° in 5% CO2. Various concentrations of doxorubicin (doxo) were then added and the cells incubated for another 72 h, followed by a further 24 h in the presence or absence of 100 μg/ml hyaluronan oligomers (o-HA). The oligomers were a mixed population of 3-8 repeating disaccharides in length. The cells were then harvested and the number of viable cells was determined in a Coulter Counter.
FIG. 18 is a set of line graphs showing a resulting cell number, on the ordinate, following drug treatment with doxorubicin, concentration (log) in nM on the abscissa, showing restoration of drug sensitivity (inhibition of drug resistance) by HA oligomers, soluble hyaluronan-binding decoys, and CD44 siRNA, using derivatives of MCF-7 cells as in FIG. 17 above.
Therefore, the effect of co-treatment with hyaluronan oligomers on drug resistance was examined in an established system, i.e. MCF-7/Adr human mammary carcinoma cells that have been selected for resistance to doxorubicin (Fairchild, C. R., et al., Cancer Res 47, 5141-8, 1987). First, the effect of hyaluronan oligomers on resistance to doxorubicin in the MCF-7/Adr cells versus the relatively drug-sensitive, parental MCF-7 cell line was compared.

[2] = tested on: MCF-7 human mammary carcinoma cells; experiment: as above; assay type: cell-based
Experimental: as §1

[3] = tested on: MCF-7 cells infected with Has2, emmprin or β-galactosidase adenovirus; experiment: Doxorubicin resistance of recombinant adenovirus-infected MCF-7 cells; assay type: cell-based, human; conditions: for pIC50: Homo sapiens, MCF7, 48 h, 48 h
Experimental: Untreated MCF-7 cells or cells infected overnight with a recombinant Has2 adenovirus or a control β-galactosidase adenovirus (β-gal) were washed, then treated in culture for 48 h with 1-1000 nM doxorubicin, followed by analysis of cell number.
Cells were treated in culture for 48 h with 10-1000 nM doxorubicin in the presence or absence of 100 μg/ml o-HA and analyzed as in FIG. 16A.
FIG. 16C is a line graph showing doxorubicin response of untreated MCF-7 cells or cells infected overnight with a recombinant emmprin adenovirus or a control β-galactosidase adenovirus (β-gal) that were treated as described in FIG. 16B.
Emmprin adenovirus-infected MCF-7 cells or control β-galactosidase adenovirus (β-gal)-infected cells were treated in the presence or absence of 100 μg/ml hyaluronan oligomers (o-HA) as described in FIG. 16B. The results in FIGS. 16A-D are expressed as the means (±S.D) of three independent experiments performed in triplicate.

[4] = tested on: MDA-MB231 human mammary carcinoma cells; experiment: Methotrexate resistance, cell number in monolayer culture; assay type: cell-based
Experimental: MDA-MB231 human mammary carcinoma cells were treated with increasing concentrations of methotrexate (MTX) in the presence or absence of 100 μg/ml HA oligomers. Cells were grown in monolayer culture in 10% fetal bovine serum and cell number measured in a coulter counter. The MTT assay for viable cells (Denizot, F., et al. J Immunol Methods, 89: 271-277, 1986) gave similar results.
Effect of addition of hyaluronan oligomers on resistance of MDA-MB231 human breast cancer cells to treatment with methotrexate was assessed.

[5] = MCF-7/Adr + o-HA (100 μg/ml hyaluronan oligomers)
[6] = MCF-7 + o-HA (100 μg/ml hyaluronan oligomers)
[7] = Homo sapiens, NCI/ADR-RES, MCF-7/Adr cells, drug alone
[8] = Homo sapiens, MCF7, MCF-7 cells, drug alone

Row | Structure (SMILES) | pIC50 [1, 5] | pIC50 [2, 6] | pIC50 [1, 7] | pIC50 [2, 8] | further results
1 | O=NN(CCCl)C(=O)NCCCl [BCNU, 1,3 bis(2-chloroethyl)-1-nitrosurea] | 6.74 | 5.92 |  |  | pIC50 ([1]; MCF-7/Adr cells, drug alone): 4.85; pIC50 ([2]; MCF-7 cells, drug alone): 6.30
2 | COc1cccc2c1C(=O)c1c(O)c3c(c(O)c1C2=O)C[C@@](O)(C(=O)CO)C[C@@H]3O[C@H]1C[C@H](N)[C@H](O)[C@H](C)O1 [Doxorubicin] | 7.40 | 7.40 | 5.66 | 7.52 | increase in resistance to doxorubicin induced by increased hyaluronan production ([3]; HAS2 adenovirus-infected MCF-7 versus controls): 10-12 fold; pIC50 ([3]; Has2 adenovirus-infected MCF-7 cells): 6.68; pIC50 ([3]; uninfected MCF-7 cells): 7.74; pIC50 ([3]; β-galactosidase adenovirus-infected MCF-7 cells): 7.70
3 | CN(Cc1cnc2nc(N)nc(N)c2n1)c1ccc(C(=O)N[C@@H](CCC(=O)O)C(=O)O)cc1 [Methotrexate] |  |  |  | 7.70 | pIC50 ([4]; MDA-MB-231, MB231 cells, with 100 μg/ml hyaluronan oligomer (FIG. 12), read-out: IC50): ~8.00; pIC50 ([4]; MDA-MB-231, MB231 cells, without hyaluronan oligomer (FIG. 12), read-out: IC50): ~6.00; pIC50 ([4]; MDA-MB-231, MDA-MB231 + o-HA (100 μg/ml hyaluronan oligomers), read-out: IC50 values): 8.22; pIC50 ([4]; MDA-MB-231, MDA-MB231 cells, drug alone, read-out: IC50 values): 6.10
4 | CC(=O)O[C@H]1C(=O)[C@@]2(C)[C@H]([C@H](OC(=O)c3ccccc3)[C@]3(O)C[C@H](OC(=O)[C@H](O)[C@@H](NC(=O)c4ccccc4)c4ccccc4)C(C)=C1C3(C)C)[C@]1(OC(C)=O)CO[C@@H]1C[C@@H]2O [Taxol] | 7.22 |  | 6.15 | 6.46 | 
5 | CC[C@]1(O)C[C@H]2CN(CCc3c([nH]c4ccccc34)[C@@](C(=O)OC)(c3cc4c(cc3OC)N(C=O)[C@H]3[C@@](O)(C(=O)OC)[C@H](OC(C)=O)[C@]5(CC)C=CCN6CC[C@]43[C@@H]65)C2)C1 [Vincristine] | 7.70 |  | 6.70 | 7.52 | 
